{
  "source": "patent US6989396B2",
  "about": "“Tropane alkaloid multidrug resistance inhibitors from Erythroxylum pervillei and use of the same” (The Board of Trustees of the University of Illinois, priority 2001, dated 2006)",
  "key": {"[1]": {"system": "SW626, human ovarian adenocarcinoma", "assay": "In vitro cytotoxicity, human tumor panel: SW626", "type": "cell-based", "method": "(§1) Cytotoxicity assay. Compounds 1–9 were evaluated for cytotoxic activity against a panel of human cancer cell lines, including KB-V1 in the presence and absence of VLB, according to an established protocol (68)."}, "Lu1, lung cancer": {"system": "Lu1, lung cancer", "assay": "In vitro cytotoxicity, human tumor panel: Lu1", "type": "cell-based", "method": "as §1"}, "KB-V1, drug resistant KB": {"system": "KB-V1, drug resistant KB", "assay": "In vitro cytotoxicity, human tumor panel: KB-V1 with or without vinblastine", "type": "cell-based", "settings": "for ED50 KB-V1+: drug resistant KB assessed in presence of vinblastine (1 μg/mL)", "method": "as §1"}, "Col2, colon cancer": {"system": "Col2, colon cancer", "assay": "In vitro cytotoxicity, human tumor panel: Col2", "type": "cell-based", "method": "as §1"}, "[2]": {"system": "LNCaP, hormone-dependent prostate cancer", "assay": "In vitro cytotoxicity, human tumor panel: LNCaP", "type": "cell-based", "method": "as §1"}, "BC1, breast cancer": {"system": "BC1, breast cancer", "assay": "In vitro cytotoxicity, human tumor panel: BC1", "type": "cell-based", "method": "as §1"}, "[3]": {"system": "KB, oral epidermoid carcinoma", "assay": "In vitro cytotoxicity, human tumor panel: KB", "type": "cell-based", "method": "as §1"}, "CEM/VLB100 cells": {"system": "CEM/VLB100 cells", "assay": "MDR reversal in drug-resistant human leukemia CEM/VLB100 cells", "type": "cell-based", "settings": "Homo sapiens; CEM/VLB100 cells; read-out: IC50 value of the cytotoxic drug in the absence of modulator", "method": "Cytotoxic potential. The cytotoxic potential of test substances with KB-3, KB-V1 and KB-8-5 cells was determined as described previously (24). Briefly, various concentrations of test compounds (dissolved in 10 μl of 10% DMSO) were transferred to 96-well plates, and 190 μl aliquots of cell suspensions (5×10^4 cells/ml) were added to each well. The plates then were incubated for 72 hours at 37° C. (100% humidity with a 5% CO2 atmosphere in air), and 100 μl of cold 20% aqueous trichloroacetic acid were added to the growth medium in each well to fix the cells. The cultures were incubated at 4° C. for 30 minutes, washed, air-dried, stained with sulforhodamine B solution, and washed with 1% acetic acid. […] In each case, a zero-day control was performed by adding an equivalent number of cells to several wells and incubating at 37° C. for 30 minutes, and processing as described above. Optical density values obtained with the zero-day control were subtracted, and cell survival, relative to control (solvent-treated) cultures, was calculated. The cytotoxic potential of the compounds with CEM and CEM/VLB100 cells was determined as described by Beck et al. (30). Cells were grown in 24-well plates at a density of 5–6×10^5 cells/ml. At 48 hours, the cell number was determined using a Coulter Counter, with a channelizer to distinguish cells from debris."}, "[4]": {"system": "SKVLB (ovarian adenocarcinoma, multidrug resistance)", "assay": "Multidrug resistance inhibition in SKVLB (pGp +ve)", "type": "cell-based, human", "settings": "Homo sapiens"}, "[5]": {"system": "SKOV3 (ovarian adenocarcinoma)", "assay": "Cytotoxicity in ovarian adenocarcinoma SKOV3 (pGp -ve)", "type": "cell-based", "settings": "Homo sapiens, SK-OV-3; read-out: IC50 SKOV3 (pGp − ve)", "method": "as §1"}},
  "note": "Read-outs that look alike come from different tables or passages of the source.",
  "data": [
    {"smiles": "COc1cc(C=CC(=O)O[C@H]2C[C@@H]3C[C@H](OC(=O)Cc4cccc(O)c4)C[C@H]2N3C)cc(OC)c1OC", "note": "[Compound 8, 3α-(3-hydroxyphenylacetoxy)-6β-(3,4,5-trimethoxycinnamoyloxy)-tropane]", "values": [
      {"measurement": "IC50", "setting": "[1]; SW626, read-out: ED50 SW626", "value": 8.4, "unit": "µg/mL"},
      {"measurement": "IC50", "setting": "Lu1, lung cancer; Homo sapiens, read-out: ED50 Lu1", "value": "> 20", "unit": "µg/mL"},
      {"measurement": "IC50", "setting": "KB-V1, drug resistant KB; Homo sapiens, KB-V1, drug-resistant KB assessed in the absence of vinblastine, read-out: ED50 KB-V1−", "value": "> 20", "unit": "µg/mL"},
      {"measurement": "ED50 KB-V1+", "setting": "KB-V1, drug resistant KB", "value": 1.9, "unit": "µg/mL"},
      {"measurement": "IC50", "setting": "Col2, colon cancer; Homo sapiens, read-out: ED50 Col2", "value": 13.4, "unit": "µg/mL"},
      {"measurement": "IC50", "setting": "[2]; Homo sapiens, LNCaP, read-out: ED50 LNCaP", "value": "> 20", "unit": "µg/mL"},
      {"measurement": "IC50", "setting": "BC1, breast cancer; Homo sapiens, read-out: ED50 BCI", "value": "> 20", "unit": "µg/mL"},
      {"measurement": "melting point", "value": "53 to 57", "unit": "°C"},
      {"measurement": "IC50", "setting": "[3]; Homo sapiens, read-out: ED50 KB", "value": 14.7, "unit": "µg/mL"}
    ]},
    {"smiles": "COc1cccc2c1C(=O)c1c(O)c3c(c(O)c1C2=O)C[C@@](O)(C(C)=O)C[C@@H]3O[C@H]1C[C@H](N)[C@H](O)[C@H](C)O1", "note": "[daunorubicin, reference compound]", "values": [
      {"measurement": "IC50", "setting": "CEM/VLB100 cells", "value": 1, "unit": "µM"}
    ]},
    {"smiles": "COc1cc2c(cc1OC)CN(CCc1ccc(NC(=O)c3cccc4c(=O)c5cccc(OC)c5[nH]c34)cc1)CC2", "note": "[GB120918, N-{4-[2-(1,2,3,4-tetrahydro-6,7-dimethoxy-2-isoquinolinyl)-ethyl]-phenyl}-9,10-dihydro-5-methoxy-9-oxo-4-acridine carboxamide, reference compound]", "values": [
      {"measurement": "IC50", "setting": "[4]; Addition of 1 μm adriamycin, read-out: IC50 SKVLB (pGp + ve), addition of adriamycin", "value": 0.02, "unit": "µM"},
      {"measurement": "IC50", "setting": "[4]; no adriamycin added, read-out: IC50 BSKVLB (pGp + ve)", "value": 14, "unit": "µM"},
      {"measurement": "IC50", "setting": "[5]", "value": 8.1, "unit": "µM"}
    ]},
    {"smiles": "COc1cc(C(=O)O[C@H]2C[C@H]3CC[C@@H](C2)N3C)cc(OC)c1OC", "note": "[Compound 2, 1αH,5αH-Tropan-3α-yl 3,4,5-trimethoxy-benzoate]", "values": [
      {"measurement": "ED50 SW626", "setting": "[1]", "value": ">20", "unit": "µg/mL"},
      {"measurement": "ED50 Lu1", "setting": "Lu1, lung cancer", "value": ">20", "unit": "µg/mL"},
      {"measurement": "ED50 KB-V1+", "setting": "KB-V1, drug resistant KB", "value": ">20", "unit": "µg/mL"},
      {"measurement": "ED50 KB-V1−", "setting": "KB-V1, drug resistant KB; drug-resistant KB assessed in the absence of vinblastine", "value": ">20", "unit": "µg/mL"},
      {"measurement": "ED50 Col2", "setting": "Col2, colon cancer", "value": ">20", "unit": "µg/mL"},
      {"measurement": "ED50 LNCaP", "setting": "[2]", "value": ">20", "unit": "µg/mL"},
      {"measurement": "ED50 BCI", "setting": "BC1, breast cancer", "value": ">20", "unit": "µg/mL"},
      {"measurement": "ED50 KB", "setting": "[3]", "value": ">20", "unit": "µg/mL"}
    ]}
  ]
}
